# Test results: US20040009208A1, “Safe and effective nutritional supplement formulations and associated regimens adapted to prevent and/or treat targeted diseases or medical or health conditions, and related methods” (Vital Living, Inc., priority 2002, published 2004)
# Tests used:
# triglycerides [1] = settings: low doses (500-1000 mg/day); cited from earlier work
# HDL cholesterol [2] = assay: Projected benefit on HDL cholesterol level (Table 5); format: in vivo, patients; settings: expected range of benefits, CVD-specific nutraceutical regimen
# Description: (§1) The particular CVD-specific nutraceuticals and regimens herein disclosed were also designed to achieve a measurable benefit on lipid levels equivalent to those provided by many popular pharmaceutical drug therapies. The expected range of benefits (“NC” indicating no change) is projected as indicated below in Table 5. Given that all of the nutritional supplement ingredients used in the CVD-specific nutraceutical herein disclosed operate according to independent mechanisms, the cumulative effective on LDL cholesterol, HDL cholesterol, triglycerides and homocysteine levels would be additive and would not counteract each other or interfere with common CVD prescription pharmaceutical treatments.
# LDL cholesterol [3] = settings: higher doses (1000-3000 mg/day); cited from earlier work
# triglycerides [4] = assay: Projected benefit on triglyceride level (Table 5); format: in vivo, patients; settings: expected range of benefits, CVD-specific nutraceutical regimen
# Description: as §1
# LDL cholesterol [5] = assay: Projected benefit on LDL cholesterol level (Table 5); format: in vivo, patients; design: key: “NC” indicating no change; settings: expected benefit, class symbol
# Description: as §1
# HDL cholesterol [6] = settings: low doses (500-1000 mg/day); cited from earlier work
# homocysteine = assay: Projected benefit on homocysteine level (Table 5); format: in vivo, patients; design: key: “NC” indicating no change; settings: expected benefit, class symbol
# Description: as §1
structure (smiles),measurement,setting,value
O=C(O)c1cccnc1 [Niacin],effect on triglycerides,triglycerides [1],lower triglycerides
same,HDL increase,HDL cholesterol [2],5-10%
same,effect on LDL cholesterol,LDL cholesterol [3],decrease LDL cholesterol modestly
same,TRIGLYCERIDES decrease,triglycerides [4],0-10%
same,LDL,LDL cholesterol [5],NC
same,effect on HDL cholesterol,HDL cholesterol [6],raise HDL cholesterol
same,HOMOCYSTEINE,homocysteine,NC
